Source: publication PMC2768111 (British Journal of Cancer, 2009)
Like-named read-outs stand apart in the source and are kept apart here.

What was measured:
PTK5 = PTK5 (Homo sapiens, UniProt P42685); assay: IC50 Profiler Express kinase assay; format: biochemical
TAO2 = target: T1, TAO2 (Homo sapiens, UniProt Q9UL54); assay: IC50 Profiler Express kinase assay; format: biochemical
T1 sequence (Q9UL54 1-1235): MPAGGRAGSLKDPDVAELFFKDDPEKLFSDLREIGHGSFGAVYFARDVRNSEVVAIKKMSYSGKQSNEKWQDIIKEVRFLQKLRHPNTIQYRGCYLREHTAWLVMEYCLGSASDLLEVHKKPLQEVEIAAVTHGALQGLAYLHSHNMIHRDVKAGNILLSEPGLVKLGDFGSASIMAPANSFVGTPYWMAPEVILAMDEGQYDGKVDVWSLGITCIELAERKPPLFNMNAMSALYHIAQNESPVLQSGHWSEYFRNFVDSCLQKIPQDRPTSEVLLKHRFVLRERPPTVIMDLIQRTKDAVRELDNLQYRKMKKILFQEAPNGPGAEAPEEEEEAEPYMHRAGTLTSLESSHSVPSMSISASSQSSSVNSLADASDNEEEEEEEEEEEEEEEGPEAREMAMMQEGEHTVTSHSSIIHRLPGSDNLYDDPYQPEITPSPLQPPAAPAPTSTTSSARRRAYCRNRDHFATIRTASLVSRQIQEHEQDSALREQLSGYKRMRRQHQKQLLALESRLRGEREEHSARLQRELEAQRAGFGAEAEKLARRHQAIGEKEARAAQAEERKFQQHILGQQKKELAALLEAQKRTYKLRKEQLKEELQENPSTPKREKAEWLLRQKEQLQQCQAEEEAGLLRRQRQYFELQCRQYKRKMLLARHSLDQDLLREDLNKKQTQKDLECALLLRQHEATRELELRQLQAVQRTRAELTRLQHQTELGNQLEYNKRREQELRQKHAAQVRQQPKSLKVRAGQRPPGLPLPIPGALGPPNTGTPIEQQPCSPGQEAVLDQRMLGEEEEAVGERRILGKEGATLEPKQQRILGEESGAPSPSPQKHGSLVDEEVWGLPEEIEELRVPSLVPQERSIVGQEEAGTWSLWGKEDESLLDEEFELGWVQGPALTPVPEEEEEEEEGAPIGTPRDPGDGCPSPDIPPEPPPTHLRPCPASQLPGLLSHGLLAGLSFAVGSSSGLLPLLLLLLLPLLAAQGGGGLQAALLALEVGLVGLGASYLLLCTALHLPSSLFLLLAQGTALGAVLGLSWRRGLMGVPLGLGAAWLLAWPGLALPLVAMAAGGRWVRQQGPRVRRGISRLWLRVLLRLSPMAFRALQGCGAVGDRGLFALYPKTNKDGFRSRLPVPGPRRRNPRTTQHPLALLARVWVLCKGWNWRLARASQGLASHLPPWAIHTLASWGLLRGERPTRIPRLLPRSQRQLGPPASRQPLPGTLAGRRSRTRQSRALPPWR

[1] = system: human bone marrow progenitor cells; assay: Bone marrow progenitor growth; format: cell-based; details: CFU-GM, 240 h

Sequence of PTK5 (P42685 whole entry): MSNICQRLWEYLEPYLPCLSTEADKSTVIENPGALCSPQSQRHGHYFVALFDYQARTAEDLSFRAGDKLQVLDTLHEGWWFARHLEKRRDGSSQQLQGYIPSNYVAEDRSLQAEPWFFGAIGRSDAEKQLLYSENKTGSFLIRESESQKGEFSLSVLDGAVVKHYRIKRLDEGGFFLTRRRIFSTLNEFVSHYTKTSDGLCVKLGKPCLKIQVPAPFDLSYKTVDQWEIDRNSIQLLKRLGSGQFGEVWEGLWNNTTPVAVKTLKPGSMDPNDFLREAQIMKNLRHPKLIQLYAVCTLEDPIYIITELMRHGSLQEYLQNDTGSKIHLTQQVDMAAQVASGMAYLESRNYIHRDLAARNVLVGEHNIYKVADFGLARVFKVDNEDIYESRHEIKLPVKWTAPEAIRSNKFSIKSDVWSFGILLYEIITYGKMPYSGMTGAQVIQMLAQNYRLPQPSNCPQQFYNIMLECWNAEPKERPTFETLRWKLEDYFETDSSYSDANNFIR

| Structure (SMILES) | IC50 (PTK5) | IC50 (TAO2) | IC50 ([1]; read-out: IC50, GM-CSF–driven CFU-GM formation) | IC50 ([1]; read-out: IC50, CFU-GM formation induced by GM-CSF) |
| --- | --- | --- | --- | --- |
| Cc1ccc(Nc2nccc(N(C)c3ccc4c(C)n(C)nc4c3)n2)cc1S(N)(=O)=O [Pazopanib] | 97 nM | 382 nM | 1000 nM | – |
| CCN(CC)CCNC(=O)c1c(C)[nH]c(/C=C2\C(=O)Nc3ccc(F)cc32)c1C [Sunitinib] | – | – | – | 32.7 nM |
